# Data as given in patent US20060160820A1, “Substituted piperazine carbamates” (Novo Nordisk A/S, priority 2003, published 2006).
# Counter-ions that a name gives are not always drawn.
# Test system: not given
# Assay: not given
# Conditions: not given
row,Compound,melting point
1,O=C(Oc1ccc(Oc2ccc(C(F)(F)F)cn2)cc1)N1CCN(CCCc2ccccn2)CC1,204 to 205 °C
2,"O=C(Oc1ccc(Oc2ccc(C(F)(F)F)cn2)cc1)N1CCN(CCCc2cccnc2)CC1 (as salt: hydrochloride) [Example 8, 4-(3-Pyridin-3-yl-propyl)-piperazine-1-carboxylic acid 4-(5-trifluoromethyl-pyridin-2-yloxy)-phenyl ester]",203 to 208 °C

# Biological target: T1, Hormone-sensitive lipase (HSL) (Homo sapiens, UniProt Q05469)
# T1 construct: made in house
# T1 sequence (Q05469 1-775 isoform Q05469-2): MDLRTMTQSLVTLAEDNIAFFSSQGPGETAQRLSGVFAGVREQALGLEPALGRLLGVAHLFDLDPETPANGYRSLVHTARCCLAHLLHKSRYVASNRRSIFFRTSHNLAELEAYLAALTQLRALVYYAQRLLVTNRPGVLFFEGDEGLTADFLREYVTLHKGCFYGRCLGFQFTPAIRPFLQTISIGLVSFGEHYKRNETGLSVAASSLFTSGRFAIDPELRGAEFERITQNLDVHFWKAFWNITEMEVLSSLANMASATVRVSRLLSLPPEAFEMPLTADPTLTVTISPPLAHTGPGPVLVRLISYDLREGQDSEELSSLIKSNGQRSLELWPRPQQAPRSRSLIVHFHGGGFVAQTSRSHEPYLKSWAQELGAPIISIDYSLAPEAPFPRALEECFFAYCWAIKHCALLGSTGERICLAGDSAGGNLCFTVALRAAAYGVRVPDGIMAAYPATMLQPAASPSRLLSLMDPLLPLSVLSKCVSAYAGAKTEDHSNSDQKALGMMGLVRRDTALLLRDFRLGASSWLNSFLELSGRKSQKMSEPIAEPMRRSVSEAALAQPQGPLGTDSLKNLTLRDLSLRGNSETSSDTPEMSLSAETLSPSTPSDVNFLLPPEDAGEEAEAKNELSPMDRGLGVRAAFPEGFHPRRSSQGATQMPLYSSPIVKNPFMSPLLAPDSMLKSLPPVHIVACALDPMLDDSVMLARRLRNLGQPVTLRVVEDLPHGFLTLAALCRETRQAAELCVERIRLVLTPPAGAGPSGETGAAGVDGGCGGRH
# Assay: 3190.1: percent inhibition of hormone sensitive lipase, fluorochrome-labeled triacylglyceride emulsion
# Assay type: biochemical
# Conditions: 10 μM sample concentration; preincubated 30 min at 25° C.; 120 min incubation at 37° C.; remaining activity; read-out: 3190.1 HSL_FL % ACTIVITY (% activity relative to non-inhibited sample)
# From the text: The Hormone-sensitive lipase was provided by Dr. Cecilia Holm, from Lund University Sweden or produced and purified by Novo Nordisk (NN) using the reagents and protocols used by Dr. Holm. The substrates used are: ^3H-labeled triolein (TO) from Amersham, Buckinghamshire, U.K. cat No. TRA191; 5-20 Ci/mmol dissolved in toluene, triolein (Sigma, Cat. No. T-1740), fluorochrome-labeled triacylglyceride (cis-octadec-9-enoic acid 2-[12-(7-nitrobenzo[1,2,5]oxadiazol-4-ylamino)dodecanoyloxy]-1-cis-octadec-9-enoyloxymethyl-ethyl ester) prepared by Novo Nordisk (NN) by conventional methods, and 1,3-(di[^3H]-stearin), 2-(PEG-Biotin)glycerol prepared in collaboration with Amersham Pharmacia Biotech, UK and described in WO 01/073442. Phosphatidyl choline (PC) and phosphatidyl inositol (PI) are from Sigma (St Luis MO cat. Nos. P-3556 and P-5954 respectively). All other reagents are of commercial grade and obtained from various commercial sources.
# 3190.1: Assay for determination of percent inhibition of hormone sensitive lipase by compound at 10 μM sample concentration.
# A lipid emulsion with fluorochrome-labeled triacylglyceride and phospholipid is used as substrate with a standard concentration of highly purified HSL (12 μg/mL initial concentration corresponding to 600 ng/mL final concentration). BSA is added as product acceptor. The transfer of the fluorochrome from the lipid phase to the water (BSA) phase changes the fluorescent properties of the fluorochrome. The changes can be monitored on a fluorimeter with an excitation wavelength of 450 nm and an emission wavelength of 545 nm.
# Compound and HSL (20 μL compound, 10 μL enzyme and 70 μL PED-BSA buffer) is preincubated for 30 min at 25° C. before addition of substrate (100 μL). Amount of formed product is measured after 120 min incubation at 37° C.
# Results are given as percent activity relative to a non-inhibited sample (no compound).
row,Compound,activity at 10 µM
1,"O=C(Oc1ccc(Cc2ccc(C(F)(F)F)cc2)cc1)N1CCN(CCc2ccccn2)CC1 [Example 1, 4-(2-Pyridin-2-yl-ethyl)-piperazine-1-carboxylic acid 4-(4-trifluoromethyl-benzyl)-phenyl ester]",6%
2,"O=C(Oc1ccc(Cc2ccc(C(F)(F)F)cc2)cc1)N1CCN(Cc2ccccn2)CC1 [Example 2, 4-Pyridin-2-ylmethyl-piperazine-1-carboxylic acid 4-(4-trifluoromethyl-benzyl)-phenyl ester]",4%
3,"CC1(C)CC(=O)N(c2ccc(OC(=O)N3CCN(Cc4ccccn4)CC3)nc2)C(=O)C1 [Example 4, 4-Pyridin-2-ylmethyl-piperazine-1-carboxylic acid 4,4-dimethyl-2,6-dioxo-3,4,5,6-tetrahydro-2H-[1,3′]bipyridinyl-6′-yl ester]",64%
4,"CC1(C)CC(=O)N(CCc2ccc(OC(=O)N3CCN(CCc4ccccn4)CC3)cc2)C(=O)C1 [Example 7, 4-(2-Pyridin-2-yl-ethyl)-piperazine-1-carboxylic acid 4-[2-(4,4-dimethyl-2,6-dioxo-piperidin-1-yl)-ethyl]-phenyl ester]",8%
5,"O=C(Oc1ccc(Oc2ccc(C(F)(F)F)cn2)cc1)N1CCN(CCCc2cccnc2)CC1 [Example 8, 4-(3-Pyridin-3-yl-propyl)-piperazine-1-carboxylic acid 4-(5-trifluoromethyl-pyridin-2-yloxy)-phenyl ester]",1%
6,"O=C(Oc1ccc(Oc2ccc(C(F)(F)F)cn2)cc1)N1CCN(CCc2cccnc2)CC1 [Example 9, 4-(2-Pyridin-3-yl-ethyl)-piperazine-1-carboxylic acid 4-(5-trifluoromethyl-pyridin-2-yloxy)-phenyl ester]",2%
